Data: patent US20230050398A1, “METHODS FOR INCREASING SHELF-LIFE OF OPHTHALMIC PHARMACEUTICAL COMPOSITIONS” (Harrow IP, LLC, priority 2021, published 2023)
Each block holds one compound with its values, some of them ahead of it.

What was measured:
Type in all cases: physicochemical
[1] = Stability of ophthalmic pharmaceutical composition of Example 1: amount of active ingredient by UHPLC; conditions: Example 1 composition; for Pass/Fail: 25° C., acceptance 90-110% of label claim (bromfenac, moxifloxacin), 90-115% (prednisolone acetate); for % Label Claim / Amount Found: stored at 25° C.
Method: The stability of an ophthalmic pharmaceutical composition made by the method of the present disclosure was studied and confirmed by the Compounder's International Analytical Laboratory. The data collected included the concentration of the active ingredients in the composition, the pH, and the appearance, color, and odor of the composition. The amount of active ingredient in the ophthalmic pharmaceutical composition was determined by ultra high performance liquid chromatography (UHPLC). The composition was stored at 25° C. The composition comprised the active ingredients bromfenac, moxifloxacin, and prednisolone acetate. The composition was considered stable if it contained 90-110% of the label claim of bromfenac and moxifloxacin and 90-115% of the label claim of prednisolone acetate.
A sample of the composition was provided on Jul. 31, 2020. […] 21, 2020.

[2] = Stability of ophthalmic pharmaceutical composition of Example 2: amount of active ingredient by UHPLC; conditions: Example 2 composition; for Pass/Fail: 25° C., acceptance 90-110% of label claim (bromfenac, moxifloxacin), 90-115% (prednisolone acetate); for % Label Claim / Amount Found: stored at 25° C.
Method: The stability of an ophthalmic pharmaceutical composition made by the method of the present disclosure was studied and confirmed by the Compounder's International Analytical Laboratory. The data collected included the concentration of the active ingredients in the composition, the pH, and the appearance, color, and odor of the composition. The amount of active ingredient in the ophthalmic pharmaceutical composition was determined by ultra high performance liquid chromatography (UHPLC). The composition was stored at 25° C. The composition comprised the active ingredients bromfenac, moxifloxacin, and prednisolone acetate. The composition was considered stable if it contained 90-110% of the label claim of bromfenac and moxifloxacin and 90-115% of the label claim of prednisolone acetate. pH was determined according to USP 791, incorporated by reference herein. Additionally, the container enclosure was tested at baseline according to USP 1207 and 381, incorporated by reference herein. No blue dye was observed via UV-Vis spectrophotometry.
A sample of the composition was provided on May 28, 2021. […] 7, 2021.

[3] = Stability of comparator composition (Example 3): amount of active ingredient by UHPLC; conditions: for Pass/Fail: 25° C., acceptance 90-110% of label claim (bromfenac, moxifloxacin), 90-115% (prednisolone acetate); for % Label Claim (Potency) / Amount Found: stored at 25° C.
Method: The data collected included the concentration of the active ingredients in the composition. The amount of active ingredient in the composition was determined by ultra high performance liquid chromatography (UHPLC). The comparator composition was stored at 25° C. The composition comprised the active ingredients bromfenac, moxifloxacin, and prednisolone acetate.
A sample of the composition was provided on Nov.

Pass/Fail ([1]; after 90 days): Pass
Pass/Fail ([1]; after 120 days): Pass
Pass/Fail ([1]; after 180 days): Pass
Pass/Fail ([1]; after 210 days): Pass
Pass/Fail ([1]; after 270 days): Pass
Pass/Fail ([1]; baseline): Pass
% Label Claim ([1]; after 90 days): 99.2%
Amount Found ([1]; after 90 days): 0.9915%
% Label Claim ([1]; after 120 days): 103.5%
Amount Found ([1]; after 120 days): 1.035%
% Label Claim ([1]; after 180 days): 105.6%
Amount Found ([1]; after 180 days): 1.056%
% Label Claim ([1]; after 210 days): 106.5%
Amount Found ([1]; after 210 days): 1.065%
% Label Claim ([1]; after 270 days): 103.6%
Amount Found ([1]; after 270 days): 1.036%
% Label Claim ([1]; baseline): 100.0%
Amount Found ([1]; baseline): 1.000%
Pass/Fail ([2]; after 90 days): Pass
Pass/Fail ([2]; after 180 days): Pass
Pass/Fail ([2]; after 270 days): Pass
Pass/Fail ([2]; after 300 days): Pass
Pass/Fail ([2]; after 365 days): Pass
Pass/Fail ([2]; baseline): Pass
% Label Claim ([2]; after 90 days): 98.0%
Amount Found ([2]; after 90 days): 0.9805%
% Label Claim ([2]; after 180 days): 98.8%
Amount Found ([2]; after 180 days): 0.9883%
% Label Claim ([2]; after 270 days): 97.4%
Amount Found ([2]; after 270 days): 0.9743%
% Label Claim ([2]; after 300 days): 99.5%
Amount Found ([2]; after 300 days): 0.9954%
% Label Claim ([2]; after 365 days): 99.6%
Amount Found ([2]; after 365 days): 0.9960%
% Label Claim ([2]; baseline): 102.4%
Amount Found ([2]; baseline): 1.024%
Pass/Fail ([3]; after 30 days): Pass
Pass/Fail ([3]; after 60 days): Pass
Pass/Fail ([3]; after 90 days): Pass
Pass/Fail ([3]; after 120 days): Pass
Pass/Fail ([3]; after 150 days): Pass
Pass/Fail ([3]; after 180 days): Pass
Pass/Fail ([3]; baseline): Pass
% Label Claim (Potency) ([3]; after 30 days): 97.8%
Amount Found ([3]; after 30 days): 0.978%
% Label Claim (Potency) ([3]; after 60 days): 90.0%
Amount Found ([3]; after 60 days): 0.9001%
% Label Claim (Potency) ([3]; after 90 days): 99%
Amount Found ([3]; after 90 days): 0.9885%
% Label Claim (Potency) ([3]; after 120 days): 95%
Amount Found ([3]; after 120 days): 0.9505%
% Label Claim (Potency) ([3]; after 150 days): 93%
Amount Found ([3]; after 150 days): 0.926%
% Label Claim (Potency) ([3]; after 180 days): 91%
Amount Found ([3]; after 180 days): 0.907%
% Label Claim (Potency) ([3]; baseline): 98.4%
Amount Found ([3]; baseline): 0.984%
Compound: CC(=O)OCC(=O)[C@@]1(O)CC[C@H]2[C@@H]3CCC4=CC(=O)C=C[C@]4(C)[C@H]3[C@@H](O)C[C@@]21C [Prednisolone acetate, prednisolone acetate]

Pass/Fail ([1]; after 90 days): Pass
Pass/Fail ([1]; after 120 days): Pass
Pass/Fail ([1]; after 180 days): Pass
Pass/Fail ([1]; after 210 days): Pass
Pass/Fail ([1]; after 270 days): Pass
Pass/Fail ([1]; baseline): Pass
% Label Claim ([1]; after 90 days): 98.3%
Amount Found ([1]; after 90 days): 0.07373%
% Label Claim ([1]; after 120 days): 100.8%
Amount Found ([1]; after 120 days): 0.07559%
% Label Claim ([1]; after 180 days): 105.6%
Amount Found ([1]; after 180 days): 0.07917%
% Label Claim ([1]; after 210 days): 101.6%
Amount Found ([1]; after 210 days): 0.0762%
% Label Claim ([1]; after 270 days): 97.5%
Amount Found ([1]; after 270 days): 0.07312%
% Label Claim ([1]; baseline): 107.0%
Amount Found ([1]; baseline): 0.08023%
Pass/Fail ([2]; after 90 days): Pass
Pass/Fail ([2]; after 180 days): Pass
Pass/Fail ([2]; after 270 days): Pass
Pass/Fail ([2]; after 300 days): Pass
Pass/Fail ([2]; after 365 days): Pass
Pass/Fail ([2]; baseline): Pass
% Label Claim ([2]; after 90 days): 101.9%
Amount Found ([2]; after 90 days): 0.07646%
% Label Claim ([2]; after 180 days): 98.6%
Amount Found ([2]; after 180 days): 0.07398%
% Label Claim ([2]; after 270 days): 92.5%
Amount Found ([2]; after 270 days): 0.06939%
% Label Claim ([2]; after 300 days): 95.5%
Amount Found ([2]; after 300 days): 0.0716%
% Label Claim ([2]; after 365 days): 91.1%
Amount Found ([2]; after 365 days): 0.06834%
% Label Claim ([2]; baseline): 100.0%
Amount Found ([2]; baseline): 0.07499%
Pass/Fail ([3]; after 30 days): Pass
Pass/Fail ([3]; after 60 days): Pass
Pass/Fail ([3]; after 90 days): Fail
Pass/Fail ([3]; after 120 days): Fail
Pass/Fail ([3]; after 150 days): Fail
Pass/Fail ([3]; after 180 days): Fail
Pass/Fail ([3]; baseline): Pass
% Label Claim (Potency) ([3]; after 30 days): 94.9%
Amount Found ([3]; after 30 days): 0.071%
% Label Claim (Potency) ([3]; after 60 days): 92.2%
Amount Found ([3]; after 60 days): 0.0692%
% Label Claim (Potency) ([3]; after 90 days): 87%
Amount Found ([3]; after 90 days): 0.0660%
% Label Claim (Potency) ([3]; after 120 days): 82%
Amount Found ([3]; after 120 days): 0.0618%
% Label Claim (Potency) ([3]; after 150 days): 84%
Amount Found ([3]; after 150 days): 0.0627%
% Label Claim (Potency) ([3]; after 180 days): 78%
Amount Found ([3]; after 180 days): 0.0584%
% Label Claim (Potency) ([3]; baseline): 99.6%
Amount Found ([3]; baseline): 0.0747%
Compound: Nc1c(CC(=O)O)cccc1C(=O)c1ccc(Br)cc1 [Bromfenac, bromfenac]
